The results in this text go back to patent US10273248B2, “Glucose uptake inhibitors” (Kadmon Corporation LLC, priority 2015, dated 2019).

As usually defined, the IC50 is the midpoint of a concentration-inhibition curve.

Molecules are shown by their SMILES. Where a name gives a salt, the structure may show the parent alone.

The test system of the first experiment is glycolysis in HT1080 cells. The experiment in a line: Glycolysis assay: oligomycin plus compound, cellular ATP by Cell Titer Glo. Format: cell-based. The note with it: Homo sapiens, HT-1080, 1 h, 10 μM oligomycin, one hour, class symbols. In short, it runs like this:
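Confluent HT1080 cells treated 1 h with compound plus 10 μM oligomycin to block mitochondrial ATP, so remaining ATP reflects glycolysis. Cellular ATP read by Cell Titer-Glo luminescence; IC50 derived from dose-response curves.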
As to `CCC(CC)NC(=O)COc1cccc(-c2nc3c(c(Nc4ccc(-c5cn[nH]c5)cc4)n2)CN(C(C)C)CC3)c1` [Example 119, 2-(3-(4-((4-(1H-pyrazol-4-yl)phenyl)amino)-6-isopropyl-5,6,7,8-tetrahydropyrido[4,3-d]pyrimidin-2-yl)phenoxy)-N-(pentan-3-yl)acetamide], the 50% inhibitory concentration (IC50) fell in the range of 0.501 to 1 µM.

In the case of `CCN1CCc2nc(-c3cccc(OCC(=O)NC4CCCC4)c3)nc(Nc3ccc(-c4cn[nH]c4)cc3)c2C1` [Example 125, 2-(3-(4-((4-(1H-pyrazol-4-yl)phenyl)amino)-6-ethyl-5,6,7,8-tetrahydropyrido[4,3-d]pyrimidin-2-yl)phenoxy)-N-cyclopentylacetamide], the concentration for half-maximal inhibition (IC50) was 0.101 to 0.25 µM. On to `COCCOc1cccc(-c2nc3c(c(Nc4ccc(-c5cn[nH]c5)cc4)n2)COCC3)c1` [Example 127, N-(4-(1H-pyrazol-4-yl)phenyl)-2-(3-(2-methoxyethoxy)phenyl)-7,8-dihydro-5H-pyrano[4,3-d]pyrimidin-4-amine], for which the IC50 is above 1 µM. Still for that read-out and setting: next, `CCC(C)(C)NC(=O)COc1cccc(-c2nc3c(c(Nc4ccc(-c5cn[nH]c5)cc4)n2)CNCC3)c1` [Example 128, 2-(3-(4-((4-(1H-pyrazol-4-yl)phenyl)amino)-5,6,7,8-tetrahydropyrido[4,3-d]pyrimidin-2-yl)phenoxy)-N-(tert-pentyl)acetamide]: 0.01 to 0.1 µM; `CCN1CCc2nc(-c3cccc(OCC(=O)NC(C)(C)CC)c3)nc(Nc3ccc(-c4cn[nH]c4)cc3)c2C1` [Example 130, 2-(3-(4-((4-(1H-pyrazol-4-yl)phenyl)amino)-6-ethyl-5,6,7,8-tetrahydropyrido[4,3-d]pyrimidin-2-yl)phenoxy)-N-(tert-pentyl)acetamide]: 0.01 to 0.1 µM; `CCC(C)(C)NC(=O)COc1cccc(-c2nc3c(c(Nc4ccc(-c5cn[nH]c5)cc4)n2)CN(C(C)C)CC3)c1` [Example 131, 2-(3-(4-((4-(1H-pyrazol-4-yl)phenyl)amino)-6-isopropyl-5,6,7,8-tetrahydropyrido[4,3-d]pyrimidin-2-yl)phenoxy)-N-(tert-pentyl)acetamide]: 0.101 to 0.25 µM.

As for `CCC(=O)N1CCc2nc(-c3cccc(OCC(=O)NC(C)(C)CC)c3)nc(Nc3ccc(-c4cn[nH]c4)cc3)c2C1` [Example 132, 2-(3-(4-((4-(1H-pyrazol-4-yl)phenyl)amino)-6-propionyl-5,6,7,8-tetrahydropyrido[4,3-d]pyrimidin-2-yl)phenoxy)-N-(tert-pentyl)acetamide], the IC50 lay within 0.01 to 0.1 µM.

In the case of `CC(C)NC(=O)COc1cccc(-c2nc(Nc3ccc(-c4cn[nH]c4)cc3)c3cnccc3n2)c1` [Example 134, 2-(3-(4-((4-(1H-pyrazol-4-yl)phenyl)amino)pyrido[4,3-d]pyrimidin-2-yl)phenoxy)-N-isopropylacetamide], the IC50 was in the range of 0.01 to 0.1 µM.

For the molecule `CC(C)(C)NC(=O)COc1cccc(-c2nc(Nc3ccc(-c4cn[nH]c4)cc3)c3cnccc3n2)c1` [Example 135, 2-(3-(4-((4-(1H-pyrazol-4-yl)phenyl)amino)pyrido[4,3-d]pyrimidin-2-yl)phenoxy)-N-(tert-butyl)acetamide], the IC50 fell in the range of 0.01 to 0.1 µM. Still for that read-out and setting: the value for `CC(C)(C)NC(=O)COc1cccc(-c2nc(Nc3ccc(-c4cn[nH]c4)cc3)c3ccncc3n2)c1` [Example 136, 2-(3-(4-((4-(1H-pyrazol-4-yl)phenyl)amino)pyrido[3,4-d]pyrimidin-2-yl)phenoxy)-N-(tert-butyl)acetamide] was 0.01 to 0.1 µM.

For `CCC(CC)NC(=O)COc1cccc(-c2nc(Nc3ccc(-c4cn[nH]c4)cc3)c3ccncc3n2)c1` [Example 137, 2-(3-(4-((4-(1H-pyrazol-4-yl)phenyl)amino)pyrido[3,4-d]pyrimidin-2-yl)phenoxy)-N-(pentan-3-yl)acetamide dihydrochloride], the IC50 was in the range of 0.01 to 0.1 µM. On the same count and under the same terms, next, `O=C(COc1cccc(-c2nc(Nc3ccc(-c4cn[nH]c4)cc3)c3ccncc3n2)c1)NC1CCCCC1` [Example 138, 2-(3-(4-((4-(1H-pyrazol-4-yl)phenyl)amino)pyrido[3,4-d]pyrimidin-2-yl)phenoxy)-N-cyclohexylacetamide dihydrochloride]: 0.01 to 0.1 µM; `NC(=O)COc1cccc(-c2nc(Nc3ccc(-c4cn[nH]c4)cc3)c3sccc3n2)c1` [Example 139, 2-(3-(4-((4-(1H-pyrazol-4-yl)phenyl)amino)thieno[3,2-d]pyrimidin-2-yl)phenoxy)acetamide]: above 1 µM; `CC(=O)N1Cc2nc(-c3cccc(OCC(=O)NC(C)C)c3)nc(Nc3ccc(-c4cn[nH]c4)cc3)c2C1` [Example 140, 2-(3-(4-((4-(1H-pyrazol-4-yl)phenyl)amino)-6-acetyl-6,7-dihydro-5H-pyrrolo[3,4-d]pyrimidin-2-yl)phenoxy)-N-isopropylacetamide]: 0.101 to 0.25 µM. Turning to `CCC(CC)NC(=O)COc1cccc(-c2nc3c(c(Nc4ccc(-c5cn[nH]c5)cc4)n2)CN(C(C)=O)C3)c1` [Example 141, 2-(3-(4-((4-(1H-pyrazol-4-yl)phenyl)amino)-6-acetyl-6,7-dihydro-5H-pyrrolo[3,4-d]pyrimidin-2-yl)phenoxy)-N-(pentan-3-yl)acetamide], the half-inhibitory concentration (IC50) was 0.01 to 0.1 µM.

Take `CC(=O)N1Cc2nc(-c3cccc(OCC(=O)NC(C)(C)C)c3)nc(Nc3ccc(-c4cn[nH]c4)cc3)c2C1` [Example 142, 2-(3-(4-((4-(1H-pyrazol-4-yl)phenyl)amino)-6-acetyl-6,7-dihydro-5H-pyrrolo[3,4-d]pyrimidin-2-yl)phenoxy)-N-(tert-butyl)acetamide]: the IC50 lay in the range of 0.01 to 0.1 µM. On the same count and under the same terms, the value for `CC(=O)N1Cc2nc(-c3cccc(OCC(=O)NC4CCCC4)c3)nc(Nc3ccc(-c4cn[nH]c4)cc3)c2C1` [Example 143, 2-(3-(4-((4-(1H-pyrazol-4-yl)phenyl)amino)-6-acetyl-6,7-dihydro-5H-pyrrolo[3,4-d]pyrimidin-2-yl)phenoxy)-N-cyclopentylacetamide] was 0.01 to 0.1 µM. On the same count and under the same terms, next, `CC(=O)N1CCc2nc(-c3cccc(OCC(=O)NC4CCCC4)c3)nc(Nc3ccc(-c4cn[nH]c4)cc3)c2C1` [Example 145, 2-(3-(4-((4-(1H-pyrazol-4-yl)phenyl)amino)-6-acetyl-5,6,7,8-tetrahydropyrido[4,3-d]pyrimidin-2-yl)phenoxy)-N-cyclopentylacetamide]: 0.01 to 0.1 µM; `CC(=O)N1CCc2nc(-c3cccc(OCC(=O)NCC(C)C)c3)nc(Nc3ccc(-c4cn[nH]c4)cc3)c2C1` [Example 146, 2-(3-(4-((4-(1H-pyrazol-4-yl)phenyl)amino)-6-acetyl-5,6,7,8-tetrahydropyrido[4,3-d]pyrimidin-2-yl)phenoxy)-N-isobutylacetamide]: 0.01 to 0.1 µM; `CC(=O)N1CCc2nc(-c3cccc(OCC(=O)NCC(C)(C)C)c3)nc(Nc3ccc(-c4cn[nH]c4)cc3)c2C1` [Example 147, 2-(3-(4-((4-(1H-pyrazol-4-yl)phenyl)amino)-6-acetyl-5,6,7,8-tetrahydropyrido[4,3-d]pyrimidin-2-yl)phenoxy)-N-neopentylacetamide]: 0.01 to 0.1 µM. On to `CCC(C)(C)NC(=O)COc1cccc(-c2nc3c(c(Nc4ccc(-c5cn[nH]c5)cc4)n2)CN(C(C)=O)CC3)c1` [Example 148, 2-(3-(4-((4-(1H-pyrazol-4-yl)phenyl)amino)-6-acetyl-5,6,7,8-tetrahydropyrido[4,3-d]pyrimidin-2-yl)phenoxy)-N-(tert-pentyl)acetamide], for which the IC50 lay within 0.01 to 0.1 µM. On the same count and under the same terms, the value for `CC(C)NC(=O)COc1cccc(-c2nc3c(c(Nc4ccc(-c5cn[nH]c5)cc4)n2)CN(C(=O)C(C)C)CC3)c1` [Example 149, 2-(3-(4-((4-(1H-pyrazol-4-yl)phenyl)amino)-6-isobutyryl-5,6,7,8-tetrahydropyrido[4,3-d]pyrimidin-2-yl)phenoxy)-N-isopropylacetamide] was 0.01 to 0.1 µM; that for `CC(C)C(=O)N1CCc2nc(-c3cccc(OCC(=O)NC(C)(C)C)c3)nc(Nc3ccc(-c4cn[nH]c4)cc3)c2C1` [Example 151, 2-(3-(4-((4-(1H-pyrazol-4-yl)phenyl)amino)-6-isobutyryl-5,6,7,8-tetrahydropyrido[4,3-d]pyrimidin-2-yl)phenoxy)-N-(tert-butyl)acetamide] was 0.01 to 0.1 µM. On the same count and under the same terms, the value for `CC(C)C(=O)N1CCc2nc(-c3cccc(OCC(=O)NC4CCC4)c3)nc(Nc3ccc(-c4cn[nH]c4)cc3)c2C1` [Example 152, 2-(3-(4-((4-(1H-pyrazol-4-yl)phenyl)amino)-6-isobutyryl-5,6,7,8-tetrahydropyrido[4,3-d]pyrimidin-2-yl)phenoxy)-N-cyclobutylacetamide] was 0.01 to 0.1 µM; that for `CCC(CC)NC(=O)COc1cccc(-c2nc3c(c(Nc4ccc(-c5cn[nH]c5)cc4)n2)CN(C(=O)C(C)C)CC3)c1` [Example 153, 2-(3-(4-((4-(1H-pyrazol-4-yl)phenyl)amino)-6-isobutyryl-5,6,7,8-tetrahydropyrido[4,3-d]pyrimidin-2-yl)phenoxy)-N-(pentan-3-yl)acetamide] was 0.01 to 0.1 µM. On to `CC(C)CNC(=O)COc1cccc(-c2nc3c(c(Nc4ccc(-c5cn[nH]c5)cc4)n2)CN(C(=O)C(C)C)CC3)c1` [Example 154, 2-(3-(4-((4-(1H-pyrazol-4-yl)phenyl)amino)-6-isobutyryl-5,6,7,8-tetrahydropyrido[4,3-d]pyrimidin-2-yl)phenoxy)-N-isobutylacetamide], for which the half-inhibitory concentration (IC50) lay in the range of 0.01 to 0.1 µM. The same measure, in the same setting: the value for `CC(C)C(=O)N1CCc2nc(-c3cccc(OCC(=O)NCC(C)(C)C)c3)nc(Nc3ccc(-c4cn[nH]c4)cc3)c2C1` [Example 155, 2-(3-(4-((4-(1H-pyrazol-4-yl)phenyl)amino)-6-isobutyryl-5,6,7,8-tetrahydropyrido[4,3-d]pyrimidin-2-yl)phenoxy)-N-neopentylacetamide] was 0.01 to 0.1 µM.

The experiment is the same for the next values; noted with them: Homo sapiens, HT-1080, 1 h, 10 μM oligomycin, one hour, number printed instead of class.
On to `CC(C)C(=O)N1CCc2nc(-c3cccc(OCC(=O)NC4CCCC4)c3)nc(Nc3ccc(-c4cn[nH]c4)cc3)c2C1` [Example 150, 2-(3-(4-((4-(1H-pyrazol-4-yl)phenyl)amino)-6-isobutyryl-5,6,7,8-tetrahydropyrido[4,3-d]pyrimidin-2-yl)phenoxy)-N-cyclopentylacetamide], for which the half-maximal inhibitory concentration (IC50) turned out to be 0.028 µM.
